We go through one compound from patent US6664309B2, “Antimicrobial hot melt adhesive” (priority 2000, dated 2003).

Molecules are shown by their SMILES.

For series [1] the following is noted: cited from earlier work.
Series [2] concerns Gram Positive Bacteria. The series can be described thus: Bacterial growth testing on inoculated agar plates, nonwoven with adhesive. As to conditions: nonwoven with 3 gsm adhesive on inoculated agar plate, 35±2° C., 24 hours, observed for areas of non-growth. It counts as cell-based, gram-positive cocci similar to a Staphylococcus type. The protocol:
A control mix, a mix with 0.5% triclosan, and a mix with 0.75% triclosan, were made of each product at 300° F. Each of the adhesives were applied at 300° F. to a standard 15.3 grams/m^2 (gsm) nonwoven substrate on the CT225 coater using a Nordson Control Weave applicator at 0.5 inch wide. The adhesive add-on level was 3 gsm. The pattern was fiberized. The nonwoven/adhesive was combined to release paper for easy removal for testing.
Ready-made petri plates of agar were used for this experiment. Inoculates were prepared using a barium sulfate standard for a turbidity of 150,000,000 bacteria/ml. The plates were inoculated using a sterile swab by streaking bacteria in three directions (to ensure complete coverage). A midline was drawn on each plate with a marker. To one side a piece of nonwoven (0.5×1.0″) was set on the inoculated plate. A sample of nonwoven with adhesive was positioned on the other half. The plates were incubated at 35±2° C. for 24 hours and observed for areas of non-growth. Photographs were taken using a digital camera. The following table outlines the samples tested and the results for each bacteria type.
Because triclosan is a broad-spectrum bacteriostat, it was thought that it would work on both the gram positive and the gram-negative strains. […]

For `Oc1cc(Cl)ccc1Oc1ccc(Cl)cc1Cl` [triclosan, 2,4,4′-trichloro-2′-hydroxy-diphenyl-ether], the Solubility in water result in series [1] is recorded as “practically insoluble in water”. In addition, in series [2], the “Bacterial growth, Gram Positive Bacteria” value is “effective at inhibiting the growth”.
